The record followed here is patent US10653651B2, “Kit for treating cancer with low molecular weight components of aurin tricarboxylic acid complex” (Aurin Biotech Inc., priority 2014, dated 2020).

Like-named read-outs stand apart in the source and are kept apart here.

As usually defined, the IC50 is the concentration that inhibits the measured activity by half.

One assay relates to U251 cells. The experiment in a line: Lactic dehydrogenase release from U251 cells. It counts as cell-based, human. Conditions: n=4, read-out: IC50, lactate dehydrogenase release from U251 cells. As to the method: (§1) Experiment 4 was designed to confirm apoptotic cell death of U251 cells induced by ATA, AQA, AHA, and ATAC by measuring release of lactic dehydrogenase into the cell medium. For serum lactate dehydrogenase determination, reaction supernatants ([…]) were pipetted into the wells of 96-well plates, followed by the addition of […] lactate solution (36 mg/mL in PBS) and […] INT (iodonitrotetrazolium chloride, 2-(4-iodophenyl)-3-(4-nitrophenyl)-5-phenyl-2H-tetrazolium chloride) solution (2 mg/mL in PBS). The enzymatic reaction was started by addition of […] of NAD^+/diaphorase solution (3 mg/mL NAD^+; 2.3 mg solid/mL diaphorase). After 1 h, optical densities were measured with a microplate reader using a 490 nm filter. The amount of LDH released was expressed as a percentage of the value obtained in comparative cells where cells were 100% lysed by 1% Triton X-100.

A further assay has as its system A549 cells. The experiment in a line: Lactic dehydrogenase release from A549 cells. It counts as cell-based, human. Conditions: n=4, read-out: IC50, lactate dehydrogenase release from A549 cells. The protocol: as §1
Experiment 8 was designed to confirm apoptotic cell death of BxPC-3 cells induced by ATA, AQA, AHA, and ATAC by the release of lactic dehydrogenase into the cell medium.
Experiment 12 was designed to confirm apoptotic cell death of A549 cells induced by ATA, AQA, AHA, and ATAC by the release of lactic dehydrogenase into the cell medium. The protocol was identical to that used in Experiment 8 except A549 cells were used.

Assay [1] deals with human colorectal cancer cell line SW 480. In words: SW 480 cell growth in zymosan-activated human serum (MTT cell viability). Type of assay: cell-based. Conditions: 15% human serum, n=4, read-out: IC50, inhibition of SW 480 cell growth induced by zymosan-activated human serum complement. As to the method: (§2) Experiment 1 was designed to determine the effect of ATA, AHA, AQA and ATAC on U251 cell growth in the presence of complement activated human serum. In Experiment 1(a), U251 cells were treated with various concentrations of human serum (1, 5, 7.5, 10, 12.5, 15%) in DMEM and incubated with 1 μg/mL zymosan at 37° C. for 72 h. Control U251 cells (CON) were incubated in fresh DMEM only. As a further control U251 cells were treated with 10% human serum heated at 56° C. for 30 min to heat inactivate complement (HIS) before incubation with 1 μg/ml zymosan. In Experiment 1(b), U251 cells were treated with various concentrations of ATAC, ATA, AQA and AHA (0.1, 1, 5, 10, 30, 50 μM) in DMEM with 15% human serum and incubated with 1 μg/mL zymosan at 37 ° C. for 72 h. In both Experiments 1(a) and 1(b), following incubation, cell viability was evaluated by MTT (3-[4,5-dimethylthiazol-2-yl]-2,5 diphenyl tetrazolium bromide) assays by adding MTT to the cell cultures to reach a final concentration of 1 mg/mL. Following a 1 h incubation at 37° C., the dark crystals formed were dissolved by adding a SDS/DMF extraction buffer (300 μL, 20% sodium dodecyl sulfate, 50% N,N-dimethylformamide, pH 4.7). Plates were subsequently incubated overnight at 37° C. and optical densities at 570 nm were measured by transferring 100 μL aliquots to 96-well plates and using a plate reader with a corresponding filter.
Experiment 23 was designed to determine the effect of ATA, AQA, 15 AHA and ATAC on growth of the human colorectal cancer cell line SW 480. The protocol was identical to that used in Experiment 15(b) except that human colorectal cancer SW480 cells were utilized. Experiment 24 was designed to determine if apoptotic death of human carcinoma SW 480 cells was induced by ATA, AQA, AHA, and ATAC as determined by the release of lactic dehydrogenase into the cell medium. The protocol was identical to that used in Experiment 15(d) except that human carcinoma SW480 cells were used and the growth medium was DMEM.

For assay [2], the system named is K562 human chronic myelogenous leukemia cell line. In words: K562 cell growth in zymosan-activated human serum (MTT cell viability). Type of assay: cell-based. The protocol: as §2
Experiment 17 was designed to determine the effect of ATA, AQA, AHA and ATAC on K562 human chronic myelogenous leukemia cell growth. The protocol was identical to that used in Experiment 15(b) except that K562 human chronic myelogenous were utilized and the growth medium was Iscove's.

Assay [3] relates to BT 474 human breast cancer cell line. In words: BT 474 cell growth in zymosan-activated human serum (MTT cell viability). It counts as cell-based. Conditions: BT 474 cells, 15% human serum, n=4, read-out: IC50, inhibition of BT 474 cell growth induced by zymosan-activated human serum complement. The protocol:
as §2
Experiment 13 was designed to determine the effect of ATA, AQA, AHA and ATAC on BT 474 cell growth. The protocol was identical to that used in Experiment 1(b) except BT 474 cells were used.

The test system of assay [4] is human bone osteosarcoma MNNG cells. In words: MNNG cell growth in zymosan-activated human serum (MTT cell viability). It counts as cell-based. Conditions: 15% human serum, n=4, read-out: IC50, inhibition of MNNG cell growth induced by zymosan-activated human serum complement. The protocol: as §2
Experiment 21 was designed to determine the effect of ATA, AQA, AHA and ATAC on growth of the human bone osteosarcoma MNNG cell line. The protocol was identical to that used in Experiment 19 (b) except that human bone osteosarcoma MNNG cells were utilized.

The test system of the next assay is BT 474 cells. In words: Lactic dehydrogenase release from BT 474 cells. Conditions: n=4, read-out: IC50, lactate dehydrogenase release from BT 474 cells. Type of assay: cell-based, human. The protocol: as §1
Experiment 14 was designed to determine if apoptotic cell death of BT 474 cells was induced by ATA, AQA, AHA, and ATAC as determined by the release of lactic dehydrogenase into the cell medium. The protocol was identical to that used in Experiment 5(d) except that BT 474 cells were used.

For assay [5], the system named is K562 human chronic myelogenous leukemia cells. The experiment in a line: Lactic dehydrogenase release from K562 cells. It counts as cell-based. Conditions: n=4, read-out: IC50, lactate dehydrogenase release from K562 cells. The protocol: as §1
Experiment 18 was designed to determine if apoptotic cell death of K562 human chronic myelogenous leukemia cells was induced by ATA, AQA, AHA, and ATAC as determined by the release of lactic dehydrogenase into the cell medium. The protocol was identical to that used in Experiment 16(b) except that K562 human chronic myelogenous leukemia cells were used.

For assay [6], the system named is DOHH2 human B-cell carcinoma cell line. The experiment in a line: DOHH2 cell growth in zymosan-activated human serum (MTT cell viability). It counts as cell-based. Conditions: 15% human serum, n=4, read-out: IC50, inhibition of DOHH2 cell growth induced by zymosan-activated human serum complement. The protocol:
as §2
Experiment 15 was designed to determine the effect of ATA, AQA, 15 AHA and ATAC on DOHH2 human B-cell carcinoma cell growth. The protocol was identical to that used in Experiment 9(b) except DOHH2 human B-cell carcinoma cells were used.

Where [7] appears, read: K562 cells, Iscove's medium, 15% human serum, zymosan, MTT, n=4, read-out: IC50, inhibition of K562 cell growth induced by zymosan-activated human serum complement.

For the molecule `O=C(O)C1=CC(=C(c2ccc(O)c(C(=O)O)c2)c2ccc(O)c(C(=O)O)c2)C=CC1=O` [ATA, aurin tricarboxylic acid], the concentration for half-maximal inhibition (IC50) was 7.6 µM in the assay with U251 cells (Homo sapiens, U-251, LDH as % of Triton X-100 lysis); 7.5 µM with A549 cells (Homo sapiens); 7 µM in assay [1] (SW480, SW 480 cells); 4.5 µM in assay [2] (Homo sapiens, K562, read-out: IC50, inhibition of K562 cell growth induced by zymosan-activated human serum complement); 5.9 µM in [3]; 7.2 µM in assay [4]. Besides, the IC50 in the assay with BT 474 cells (Homo sapiens) is 4.8 µM; in assay [5] (Homo sapiens), 4.7 µM; in [6] (DOHH-2, DOHH2 cells), 5.1 µM.
On to aurin hexacarboxylic acid [AHA], for which the IC50 with U251 cells (LDH as % of Triton X-100 lysis) was determined as 7.7 µM; in the assay with A549 cells it was 7.6 µM; in assay [1] (SW 480 cells), 6.8 µM; in [2] (setting [7]) it was 4.6 µM; in assay [3], 5.8 µM; in assay [4], 7.5 µM. Moreover, the half-maximal inhibitory concentration (IC50) in the assay with BT 474 cells was determined as 4.9 µM; in assay [5] it was 4.6 µM; in assay [6] (DOHH2 cells) it was 4.9 µM.
Regarding aurin quadracarboxylic acid [AQA], the IC50 with U251 cells (LDH as % of Triton X-100 lysis) worked out at 7.4 µM; with A549 cells it was 7.4 µM; in assay [1] (SW 480 cells), 7 µM; in assay [2] (setting [7]) it was 4.7 µM; in assay [3], 6 µM; in assay [4], 7.4 µM. The figures for the IC50 (in the assay on BT 474 cells; in assay [5]; in [6] (DOHH2 cells)) were 4.7 µM, 4.6 µM and 5 µM, respectively.
